Measurements as given in patent US20260265408A1, “GD2-SPECIFIC CHIMERIC ANTIGEN RECEPTOR EFFECTOR CELLS FOR USE IN THE TREATMENT OF SOLID TUMORS, POSSIBLY IN COMBINATION WITH ENHANCER OF ZESTE HOMOLOG 2 (EZH2) INHIBITORS” (priority 2023, published 2026).

System: CAR.GD2 T-cells
Assay: In vivo activation of iC9 suicide gene by AP1903 in PDX-MB mouse model
Design: species or system NSG mice
Procedure: The in vivo activity of AP1903 on apoptosis induction of CAR. GD2 T-cells was assessed in in vivo PDX-MB mouse model. Briefly, 2×10^5 Med-411FH mCherry/Luciferase were orthotopic infused in 5-week-old female NSG mice. After tumor engraftment, confirmed by bioluminescence monitoring, mice received an intravenous injection (i.v.) of 10×10^6 of NT T or genetically modified CAR.GD2 T cells. Ten days later, when the presence of circulating T cells was confirmed by flow cytometric analysis, mice were randomly divided in four groups and treated or not treated by intraperitoneal (i.p.) infusion with AP1903 (100 mg/mouse) on day +11, day +12 and day +13 (NT-T no AP1903, NT-T AP1903+ or CAR. GD2-T no AP1903, CAR.GD2-T AP1903+). The residual of effector cells was evaluated 24 hours after the last AP1903 treatment by flow cytometric analysis in the peripheral blood or histologic and IHC analysis in brain/tumor tissue. Animals were sacrificed and brains were fixed in 4% formaldehyde in 0.1 mol/L phosphate buffer (pH 7.2) and paraffin embedded. AP1903 (cat. No. 6130, Biotechne-TOCRIS).
The histopathologic analysis was performed as previously reported^74. Briefly, after Haematoxylin/Eosin staining for IHC analysis, the sections were cut to 2.5 μm thick, dewaxed, and rehydrated. Epitope retrieval was performed by boiling the slides with EDTA (pH 9). Endogenous peroxidase was blocked with 3% hydrogen peroxide for 10 minutes followed by another blocking step in 5% serum albumin (BSA) for 1-hour RT. The sections were then incubated with anti-CD3 antibody (1:100, DAKO) or anti-Ki67 (1:100, Abcam) at 4° C. overnight. Secondary biotinylated antibody (K8024, Dako, Carpinteria, USA) and the peroxidase DAB kit (Dako, Carpinteria, USA) were used to reveal the primary antibodies. Slides were then counterstained with hematoxylin, dehydrated with a series of alcohol solutions (70%-100%), followed by three changes of Diasolv and mounted with Diamount (Diapath). Analysis was performed using standard microscopy.

CC[C@H](C(=O)N1CCCC[C@H]1C(=O)O[C@H](CCc1ccc(OC)c(OC)c1)c1cccc(OCC(=O)NCCNC(=O)COc2cccc([C@@H](CCc3ccc(OC)c(OC)c3)OC(=O)[C@@H]3CCCCN3C(=O)[C@@H](CC)c3cc(OC)c(OC)c(OC)c3)c2)c1)c1cc(OC)c(OC)c(OC)c1 [AP1903]
circulating CAR.GD2-T cells (AP1903 i.p. 100 mg/mouse on three consecutive days, compared to untreated): significant reduction
tumor-infiltrating CD3+ cells (anti-hCD3 IHC on cerebella slides) (AP1903 i.p. on three consecutive days): eliminate tumor-infiltrating CD3+ cells
crossing of the BBB (systemic (i.p.) administration): cross the BBB
